{"source": "ChEMBL document CHEMBL1177645", "about": "“Crystallographic and docking studies of purine nucleoside phosphorylase from Mycobacterium tuberculosis” (Bioorg Med Chem, 2010)"}
{"biological_target": "T1, Purine nucleoside phosphorylase (Mycobacterium tuberculosis, UniProt P9WP01)", "T1 sequence (P9WP01 whole entry)": "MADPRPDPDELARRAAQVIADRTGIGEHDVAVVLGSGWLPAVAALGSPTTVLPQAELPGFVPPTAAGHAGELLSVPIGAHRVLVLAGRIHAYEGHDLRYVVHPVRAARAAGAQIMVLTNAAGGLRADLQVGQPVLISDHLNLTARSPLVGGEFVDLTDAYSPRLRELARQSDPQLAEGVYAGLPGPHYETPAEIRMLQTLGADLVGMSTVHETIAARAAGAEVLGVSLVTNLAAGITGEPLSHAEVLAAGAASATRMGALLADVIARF", "assay": "Binding affinity to Mycobacterium tuberculosis purine nucleoside phosphorylase by spectrophotometric analysis", "units": {"Kd": "µM"}}
{"smiles": "CSc1nc(N)nc2[nH]cnc12", "Kd": 316}
{"smiles": "CSc1ncnc2c1ncn2[C@@H]1O[C@H](CO)[C@@H](O)[C@H]1O", "Kd": 12.6}
{"smiles": "Nc1nc2c(ncn2COCCO)c(=O)[nH]1", "note": "[ACYCLOVIR]", "Kd": 12.6}
{"smiles": "Oc1ncnc2[nH]ncc12", "note": "[ALLOPURINOL]", "Kd": 1000}
{"smiles": "Nc1nc(O)c2ncn(COC(CO)CO)c2n1", "note": "[GANCICLOVIR]", "Kd": 15.8}
{"smiles": "Sc1ncnc2nc[nH]c12", "note": "[MERCAPTOPURINE ANHYDROUS]", "Kd": 79.4}
{"smiles": "O=c1[nH]c(=O)c2c[nH]nc2[nH]1", "note": "[OXYPURINOL]", "Kd": 794}
